Key:
[1] = tested on: children with moderate to severe Crohn's disease; assay: pilot clinical trial in children with moderate to severe Crohn's disease; type: in vivo, human; design: patients in remission (PCDAI score≤10): unit not given here
Protocol: A pilot clinical trial was conducted in children with moderate to severe Crohn's disease. Fourteen subjects with a mean age of 12.3 years (range, 8 to 17 y) were enrolled. […]. Safety and toxicity were monitored by physical examinations and blood chemistries. Clinical activity was assessed by the Pediatric Crohn's Disease Activity Index (PCDAI) and Quality of life was monitored by the Impact III survey. […] […].

[2] = tested on: Rheumatoid Arthritis patients; assay: rheumatoid arthritis case reports; type: in vivo, human
Protocol: A person diagnosed with Rheumatoid Arthritis in 2006 and was being treated with methotrexate and plaquenil but patients continued with pain and fatigue. […]
A person diagnosed 5 years ago with RA was treated with Methotrexate 25 mg per week and Remicade 300 U every 6 weeks, the fatigue and pain continued, along with the inflammation and general weakness. Sleep disturbed nightly due to pain in my shoulders and hips. Patient felt their life was not acceptable and none of the immunosuppression drugs were helping. […] Within two weeks patient stopped even ibuprophen. Rheumatoid factor has gone from 127 to 66 in 4 months and has stayed stable. […] Occasionally patient has pain but it is easily controlled with a normal dosage of ibuprophen.
A person, diagnosed with RA in 1999 stayed very active until 2005 on a combination of Methotrexate and Prednisone but was have difficulty maintaining their business due to fatigue and severe joint pain with deformity of their hands and elbows. Patient was told to increase their does and start a second immunomodulating drug. Patient no longer wanted to continue with immunosuppression drug or steroids due to the side effects. […]; they have no pain that can't be handled with aspirin.

HIV = assay: naltrexone as adjunct therapy, 50 HIV/AIDS patients in Africa with standard of care; type: in vivo, human
Source text: Naltrexone as an adjunct therapy with HIV/AIDS patients. […] HIV disease is associated with a new constellation of problems, generally referred to as “non-AIDS morbidity”, and, in the popular press, “premature aging. […] at risk for developing a number of non-AIDS conditions, including cardiovascular disease, cancer, kidney disease, liver disease, osteopenia/osteoporosis and neurocognitive disease (collectively referred to as “serious non-AIDS events”). Malignancies associated with infections such as human papilloma virus (including uro-genital and head and neck cancers), Epstein Barr Virus (including Hodgkins disease), and hepatitis B and C (hepatocellular carcinoma), are also relatively common in HIV-infected adult. […] Subtle elevations in many of these biomarkers are associated with dramatic increases in the risk of subsequent disease, including all-cause mortality For example, as compared to a well-matched uninfected population, treated HIV-infected adults have approximately 50 to 100% higher levels of the inflammatory cytokine interleukin-6 (IL-6)^(32). […] Risk factors for impaired CD4 T-cell recovery include low pre-treatment CD4+ T cell count nadir, co-infection with other viruses such as hepatitis C, older age, and perhaps viral factors (24). […]

[3] = tested on: multiple sclerosis (MS) patients; assay: double-masked, placebo-controlled crossover pilot trial on quality of life in multiple sclerosis, 80 patients; type: in vivo, human; conditions: 4.5 mg nightly
Source text: RESULTS: Eighty subjects with clinically definite MS were enrolled, and 60 subjects completed the trial. Ten withdrew before completing the first trial period: 8 for personal reasons, 1 for a non-MS-related adverse event, and 1 for perceived benefit. Database management errors occurred in 4 other subjects, and quality of life surveys were incomplete in 6 subjects for unknown reasons. […] LDN was associated with significant improvement on the following mental health quality of life measures: a 3.3-point improvement on the Mental Component Summary score of the Short Form-36 General Health Survey (p=0.04), a 6-point improvement on the Mental Health Inventory (p<0.01), a 1.6-point improvement on the Pain Effects Scale (p=0.04), and a 2.4-point improvement on the Perceived Deficits Questionnaire (p=0.05). […] Further studies with LDN in MS are warranted.

Hashimoto's patients = assay: Hashimoto's thyroiditis case reports
Protocol: Patient was taking L-thyroxine and pain medications and 75 mg Zoloft.
Patients was taking Synthroid 150 mcg, Compounded T3 25 mcg, Progesterone 150 mg, Plus lots of supplements like Magnesium, D3, Methyl B12, Methyl folate, Selenium, E, Amino Restore, CLA, NAC, DE, Adaptacin.

Shingles = assay: shingles case report; type: in vivo, human; conditions: 4.5 mg nightly from 2013; before 8 major outbreaks over 18 months
Protocol: A person diagnosed with Shingles in 2010 over 18 months had 8 major outbreaks, and was treated with acyclovir, and valacyclovir, as the outbreaks continued they prescribed Lidocaine patches and pain medications. […]

[4] = tested on: myasthenia gravis patient; assay: myasthenia gravis case report; type: in vivo, human; conditions: drug interrupted
[5] = tested on: women meeting criteria for fibromyalgia; assay: fibromyalgia study in ten women; type: in vivo, human; conditions: 4.5 mg
Source text: […]. […] Baseline erythrocyte sedimentation rate predicted over 80% of the variance in drug response. […]. Which confirms the ability of Immediate release naltrexone to decree pain and inflammation.

AIDS = assay: 3-month double-blind then open trial in 38 AIDS patients (Kaposi's sarcoma / opportunistic infection); type: in vivo, human
[6] = 0.1 mg/kg orally, end of the study

In the case of O=C1CC[C@@]2(O)[C@H]3Cc4ccc(O)c5c4[C@@]2(CCN3CC2CC2)[C@H]1O5 [Immediate release naltrexone, naltrexone], the safety and tolerability ([1]; 0.1 mg/kg orally) is reported as “well tolerated without any serious adverse events”, the “patients improved with mild disease activity (decrease in PCDAI score by at least 10 points)” value [1, 6] is reported as 67% and the “patients in remission (PCDAI score≤10)” value [1, 6] is reported as “Twenty-five”. For the same molecule, the “Systemic and social quality of life (Impact III)” value ([1]; P=0.035) was “improved”, the “medication use, person, Rheumatoid Arthritis” value ([2]; 1.5 mg titrated up to 4.5 mg from April of 2009) was “Successfully discontinued methotrexate March of 2010 and then discontinued plaquenil in October of 2010” and the “fatigue, person, RA” value ([2]; 4.5 mg at bedtime) was “Fatigue is gone”. The “Rheumatoid factor, person, RA” value ([2]; 4.5 mg at bedtime, from 127 in 4 months) was 66, the “medication use, person, RA” value ([2]; 4.5 mg at bedtime, within 7 days) was “stooped all traditional RA medications” and the “disease course, person, RA” value ([2]; 4.5 mg with diet, supplements, hormones etc., 7 years later) was “RA has not advanced”. The “inflammatory cytokine and Th1/Th2 balance” value (HIV; adjunct to standard of care (ART)) was “Secreased inflammatory cytokine and a shift from Th1 (pro-inflammatory) to Th2 (anti-inflammatory)”, the “opportunistic infection and quality of life” value (HIV; adjunct to standard of care, long term) was “reduction in opportunistic infection and a higher quality of live” and the “tolerability and serious adverse events” value [3] was “well tolerated, and serious adverse events did not occur”. For the same molecule, the “improvement on the Mental Component Summary score of the Short Form-36 General Health Survey” value ([3]; 8 weeks, p=0.04) was 3.3 point, the “lab work, person, Hashimoto's” value (Hashimoto's patients; 1.5 mg) was “Latest lab work was normal in all areas” and the “side effect, person, Hashimoto Thyroiditis” value (Hashimoto's patients; 3 mg in morning and 1 mg at night) was “strange dreams”. The “TPO levels, person, Hashimoto's” value (Hashimoto's patients; 4.5 mg with T3/T4 capsules from August 2011, initial 350) was “returned to normal”, the “TgAb, person, Hashimoto's” value (Hashimoto's patients; titrated 1.5, 3, 4.5 mg, from 77) was under 1 and the “outbreaks, person, Shingles” value (Shingles) was “have not had a single outbreak”. The “effect of running out of drug, person, myasthenia gravis” value [4] was “symptoms began to return within 72 hours”, the “Side effects (including insomnia and vivid dreams)” value [5] was “rare, and described as minor and transient” and the “mechanical and heat pain thresholds” value ([5]; laboratory visits) was “improved”. For the same molecule, the “elevated levels of serum alpha interferon (IFN-α) vs placebo” value (AIDS; 1.75 mg nightly at bedtime, 3-month double-blind period, p<0.01) was “significant drop”, the “survival of patients who did not show a decline in IFN-α” value (AIDS; 2 of the 15) was 13% and the “mean IFN-α level after treatment” value (AIDS; 23 patients with decline, from mean 144.9 IU. over a 12-month period) was 11.0 IU. For the same molecule, the “survival of patients who showed a decline in IFN-α” value (AIDS; Nineteen of the 23, p<0.01) was 83% and the side effects (AIDS; during the conduct of the trial) was “No side effects were noted”.

— patent US11419865B2, “Method for inducing a sustained immune response” (Cytocom Inc., priority 2016, dated 2022)
